Assay results reported in patent publication US20160038526A1, “TREATMENT OF PROSTATE CANCER” (THOMAS JEFFERSON UNIVERSITY, priority 2012, published 2016).

Key:
Jak2 = target: T1, Jak2 (Homo sapiens, UniProt O60674); experiment: Jak2 phosphorylation in CWR22Rv1 cells (immunoprecipitation/Western blot); assay type: cell-based; details: CWR22Rv1 cells, 25, 50 and 100 μM for 2 h, 10 nM Prl 30 minutes
T1 construct: endogenous in cells; host or cells: CWR22Rv1
Description: CWR22Rv1 cells were starved for 24 h in serum-free medium, treated N6BAP at 25, 50 and 100 μM concentrations for 2 h, followed by stimulation with 10 nM Prl for 30 minutes. Stat5a and Jak2 were immunoprecipitated with anti-Stat5a or anti-Jak2 pAbs. Immunoprecipitates of CWR22Rv1 cells were blotted with anti-PYStat5, anti-Stat5a/b mAb or anti-PY mAb (for Jak2). Whole cell lysates were immunoblotted with anti-actin pAb for loading control. Because SH2-domain of Stat5 mediates the recruitment of Stat5 to the Prl-receptor-Jak2-complex and Stat5 phosphorylation, N6BAP inhibits Prl-induced phosphorylation of Stat5.
The protocol in more detail comprised the following. Cell pellets were solubilized in lysis buffer [10 mM Tris-HCl (pH 7.6), 5 mM EDTA, 50 mM sodium chloride, 30 mM sodium pyrophosphate, 50 mM sodium fluoride, 1 mM sodium orthovanadate, 1% Triton X-100, 1 mM phenylmethylsulfonyl fluoride, 5 μg/mlaprotinin, 1 μg/ml pepstatin A, and 2 μg/ml leupeptin], rotated end-over-end at 4° C. for 60 min, and insoluble material was pelleted at 12,000×g for 30 min at 4° C. The protein concentrations of clarified cell lysates were determined by simplified Bradford method (Bio-Rad Laboratories, Hercules, Calif.). Stat5a, Stat5b and Jak2 were immunoprecipitated from whole cell lysates with anti-Stat5a, anti-Stat5b (4 μl/ml; Millipore, Billerica, Mass.) or anti-Jak2 (Millipore) pAbs. […]

CWR22Rv1 xenograft tumor = experiment: CWR22Rv1 human prostate tumor xenograft in nude mice: tumor growth, viable cells, TUNEL; assay type: in vivo; details: nude mice, 25, 50 or 100 mg/kg intraperitoneal daily for 10 days
Description: 1.5×10^7 CWR22Rv1 cells in 0.1 ml RPMI 1640 medium were mixed with 0.1 ml of Matrigel (BD Bioscience, Palo Alto, Calif.), and were inoculated subcutaneously (s.c.) into one flank per mouse. Established tumors were randomly distributed into five groups (ten mice for each group) with similar average size. N6BAP was dissolved in 0.3% hydroxycellulose (HPC). Mice were treated daily for 10 days by intraperitoneal injection with 0.2 ml of N6BAP at 25 mg/kg, 50 mg/kg or 100 mg/kg body weight, or with 0.2 ml 0.3% HPC solution, or no treatment for control. Tumor sizes were measured three times per week. Tumor volumes were calculated using the following formula: 3.14×length×width×depth/6. Tumor growth rates were calculated, and percent changes in tumor volume of each group were presented. […] Individual tumors are represented as columns.
Tumor sections were hematoxylin-eosin stained to assess the loss of viable tumor cells. The results are shown in FIG. 12A, showing the loss of live epithelial cells with the […] N6BAP-treated CWR22Rv1 xenograft tumors vs. controls.
In situ end labeling of fragmented DNA was carried out according to the terminal deoxyribonucleotidyl transferse (TdT)-mediated biotin-16-dUTP nick-end labeling (TUNEL) assay to determine that cells within the CWR22Rv1 tumors were undergoing apoptosis. The assay was performed according to the In situ Cell Death Detection Kit from Roche Applied Science. Briefly, rehydrated deparaffinated tissue sections from the xenograft tumors were treated by Proteinase K followed by 3% H2O2 at room temperature. […] Nucleotides incorporated into fragmented DNA were detected after incubation with anti-fluorescein antibody conjugated with peroxidase followed by visualization with 3,3-diaminobenzidine as a chromogen and methyl green as a counterstain. […] Cell viability indexes were determined by counting alive cells per total number of cells per view established in the no treatment group. TUNEL indexes were determined by counting epithelial cells with TUNEL-positive cells per total number of epithelial cells per view. […]

cyclin D1 = experiment: Expression of Stat5 target gene cyclin D1 in CWR22Rv1 and LNCaP cells (immunoblot); assay type: cell-based, human; details: 48 h or 25 μM over time
Description: Exponentially growing CWR22Rv1 and LNCaP cells were treated with N6BAP or the control compound C5 (Ctrl) for 48 h at concentrations indicated in FIG. 6 and whole cell lysates were immunoblotted with anti-cyclinD1 mAb. Exponentially growing CWR22Rv1 and LNCaP cells were treated with N6BAP or control compound C5 (Ctrl) at 25 μM for the periods of time indicated in FIG. 6, and whole cell lysates were immunoblotted with anti-cyclinD1 mAb or anti-Bcl-X1 pAb. Cell pellets were solubilized in lysis buffer [10 mM Tris-HCl (pH 7.6), 5 mM EDTA, 50 mM sodium chloride, 30 mM sodium pyrophosphate, 50 mM sodium fluoride, 1 mM sodium orthovanadate, 1% Triton X-100, 1 mM phenylmethylsulfonyl fluoride, 5 μg/ml aprotinin, 1 μg/ml pepstatin A, and […]], rotated end-over-end at 4° C. for 60 min, and insoluble material was pelleted at 12,000×g for 30 min at 4° C. The protein concentrations of clarified cell lysates were determined by simplified Bradford method (Bio-Rad Laboratories, Hercules, Calif.). The following primary antibodies were used for Western blotting, at the following concentrations: anti-β-actin pAb (1:4,000; Sigma), anti-cyclin D1 mAb (1:1000, BD Biosciences) and Bcl-xL pAb (1:1000, Cell Signaling, Danvers, Mass.).

COS-7 (monkey kidney) = experiment: Cell viability assay, COS-7; assay type: cell-based
Description: CWR22Rv1 prostate cancer cells were treated with N6BAP or the control compound C5 (Ctrl) at 25 μM concentration or vehicle for 24 h. Following trypan blue exclusion, the attached viable vs. de-attached dead cells were counted. […] The bars indicate mean±SD of triplicate wells. In another assay, CWR22Rv1, LNCaP and DU145 cells were treated with N6BAP, the control compound C5 (Ctrl) or vehicle at indicated concentrations. The fraction of alive cells was determined by MTS ([…]) metabolic activity assay (CellTiter 96® AQueous Assay kit). The results are shown in FIGS. 9C, 9D and 9E, respectively.
The procedure of Example 9 was followed, substituting cells of the following solid tumor cell lines for the cells treated in Example 9: A549 human lung cancer cells, CAPAN human pancreatic cancer cells, T47D human breast cancer cells, […], A2058 human melanoma and COS-7 monkey fibroblast cell lines.

T1 sequence (O60674 whole entry): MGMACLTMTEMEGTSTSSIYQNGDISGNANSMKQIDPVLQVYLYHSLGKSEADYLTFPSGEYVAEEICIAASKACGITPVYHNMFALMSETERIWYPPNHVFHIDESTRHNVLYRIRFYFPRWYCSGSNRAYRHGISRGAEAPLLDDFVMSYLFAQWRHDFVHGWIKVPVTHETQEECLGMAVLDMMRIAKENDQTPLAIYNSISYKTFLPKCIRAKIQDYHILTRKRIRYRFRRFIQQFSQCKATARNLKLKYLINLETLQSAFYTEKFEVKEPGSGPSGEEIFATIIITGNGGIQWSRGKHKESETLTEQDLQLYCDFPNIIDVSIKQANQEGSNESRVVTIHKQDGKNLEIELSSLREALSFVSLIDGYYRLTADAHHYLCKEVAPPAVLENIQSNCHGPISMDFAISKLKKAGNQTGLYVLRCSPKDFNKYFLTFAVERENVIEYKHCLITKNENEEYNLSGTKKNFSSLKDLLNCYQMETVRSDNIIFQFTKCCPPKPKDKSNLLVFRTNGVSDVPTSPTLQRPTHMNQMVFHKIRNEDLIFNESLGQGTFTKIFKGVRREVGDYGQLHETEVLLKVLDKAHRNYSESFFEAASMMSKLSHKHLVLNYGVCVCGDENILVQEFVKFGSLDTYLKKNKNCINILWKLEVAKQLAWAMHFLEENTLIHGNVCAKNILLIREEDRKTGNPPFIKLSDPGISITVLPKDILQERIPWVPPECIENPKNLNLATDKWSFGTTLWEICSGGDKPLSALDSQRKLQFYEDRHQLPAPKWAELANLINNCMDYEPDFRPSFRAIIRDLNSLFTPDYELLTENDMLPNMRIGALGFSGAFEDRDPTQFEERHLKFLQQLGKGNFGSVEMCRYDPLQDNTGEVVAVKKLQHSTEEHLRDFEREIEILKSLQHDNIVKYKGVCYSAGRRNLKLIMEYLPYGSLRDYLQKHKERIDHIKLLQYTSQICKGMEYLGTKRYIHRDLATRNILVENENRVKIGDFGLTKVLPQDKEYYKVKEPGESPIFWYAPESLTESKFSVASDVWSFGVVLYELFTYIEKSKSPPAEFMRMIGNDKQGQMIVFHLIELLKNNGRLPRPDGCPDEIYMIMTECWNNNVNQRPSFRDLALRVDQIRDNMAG

- phosphorylation of Jak2 (Jak2): does not affect phosphorylation of Jak2
SMILES: O=P(O)(O)OC[C@H]1O[C@@H](n2cnc3c(NCc4ccccc4)ncnc32)[C@H](O)[C@@H]1O [N6BAP, N^6-benzyladenosine-5′-monophosphate]
- apoptotic epithelial cells in tumor xenografts (TUNEL) (CWR22Rv1 xenograft tumor): increased apoptotic epithelial cells
- live epithelial cells in tumor xenografts (hematoxylin-eosin staining) (CWR22Rv1 xenograft tumor): decreased the number of live epithelial cells
- xenograft tumor growth (tumor volume) (CWR22Rv1 xenograft tumor): inhibited the growth of the xenograft tumor in a dose-dependent manner
- expression of cyclin D1 (cyclin D1): down-regulates expression
- cell viability (COS-7 (monkey kidney)): did not affect the viability
